Values of other authors in patent US20030165566A1, “Sedative non-benzodiazepine formulations” (priority 2002, published 2003).
Structures can show the parent of a compound that is named as a salt. Where two headings read alike, the source gives them in different places.

Experiments:
[1] = in vivo
[2] = 10 mg
[3] = single 20 mg oral dose, elderly (>70 years) vs 20 to 40 years
[4] = single 20 mg oral dose, elderly subjects (>70 years)
[5] = single 20 mg oral dose, younger adults (20 to 40 years)
[6] = 20 minutes after a meal vs fasting

Question: Which results are given for `Cc1ccc(-c2nc3ccc(C)cn3c2CC(=O)N(C)C)cc1` [Zolpidem]?
Answer: increase of mean AUC, elderly vs younger adults [3]: 64%; increase of mean Cmax, elderly vs younger adults [3]: 50%; increase of mean T1/2, elderly vs younger adults [3]: 32%; mean AUC [4]: 1,562 ng/hr/ml; mean Cmax [4]: 284 ng/mL; mean T1/2 [4]: 2.9 h; mean AUC [5]: 955 ng/h/mL; mean Cmax [5]: 255 ng/mL; mean T1/2 [5]: 2.2 h; half-life [1]: approximately 2.5 hours

Question: Which accumulation (elderly subjects, nightly oral dosing 10 mg for 1 week) does the source give for `Cc1ccc(-c2nc3ccc(C)cn3c2CC(=O)N(C)C)cc1` [zolpidem tartrate] here?
Answer: did not accumulate

Question: And the “mean Tmax” value ([2]; 20 minutes after a meal)?
Answer: 2.2 h

Question: And the “decrease of mean AUC with food” value [2, 6]?
Answer: 15%

Question: What about the “decrease of mean Cmax with food” value [2, 6] of the same compound?
Answer: 25%

Question: What about the half-life with food [2, 6] of the same compound?
Answer: remained unchanged

Question: And the “prolongation of mean Tmax with food” value [2, 6]?
Answer: 60%

Question: What about the “mean Tmax” value ([2]; fasting) of the same compound?
Answer: 1.4 h
